Experimental data reported in patent US6241963A, “Dopamine and serotonin transporter ligands and imaging agents” (priority 1996, dated 2001).
“And” between values parts separate entries of the source, which are not always exact repeats. Equal entries are not always repeated.

Columns and labels:
[1] = type: in vivo, Male Sprague-Dawley rats; conditions: rats, iv
Protocol: Male Sprague-Dawley rats (225-300 g) allowed free access to food and water were used for in vivo biodistribution studies. Kung, 1984, supra; Kung, 1985, supra. While under ether anesthesia, 0.2 mL of a saline solution containing 1.19a, 1.19b, 1.20a, 1.20b or 1.21 (50-100 μCi) was injected directly into the femoral vein of rats, and the rats were sacrificed by cardiac excision at various time points post-injection. The organs of interest were removed and weighed, and the radioactivity was counted with an automatic gamma counter (Packard 5000). The percentage dose per organ was calculated by a comparison of the tissue counts to suitably diluted aliquots of the injected material. Total activities of blood and muscle were calculated under the assumption that they were 7% and 40% of the total body weight, respectively.
(§1) The major criteria for determining the potential usefulness of in vivo dopamine transporter imaging agents are based on an animal biodistribution study. In this case, rats were used as an animal model. After an intravenous injection of the Tc-99m labeled compounds, the values of initial brain uptake (% dose/whole organ) at 2 minutes post intravenous injection are used to measure the ability to penetrate the intact blood-brain barrier. Compounds displaying higher brain uptake are the better agents (minimum requirement >0.1% dose in brain). The second criteria is the specific uptake in the striatum region of the brain, where dopamine transporters are located. The uptake value (% dose/gram) of the striatum (ST) is divided by the background area, cerebellum (CB; essentially devoid of dopamine transporter); the ratio of ST/CB is an indicator for specific uptake (minimum requirement for ST/CB >1.5). Five structurally similar tropane derivatives were examined in this biological study. (Tables 1.1 to 1.4).
Male Sprague-Dawley rats (225-300 g) that were allowed free access to food and water were used for in vivo biodistribution studies. (Kung, 1984, supra; Kung, 1985, supra). While under halothane anesthesia, 0.2 mL of a saline solution containing 3.24 to 3.34 ([…]) was injected directly into the femoral vein of rats, and they were sacrificed by cardiac excision at various time points post-injection. The organs of interest were removed and weighed, and the radioactivity was counted with an automatic gamma counter (Packard 5000). The percentage dose per organ was calculated by a comparison of the tissue counts to suitably diluted aliquots of the injected material. Total activities of blood and muscle were calculated under the assumption that they were 7% and 40% of the total body weight, respectively.

[2] = target: dopamine transporters (Rattus norvegicus, UniProt P23977); type: in vivo, Male Sprague-Dawley rats; conditions: rats, iv
dopamine transporters, sequence (P23977 whole entry): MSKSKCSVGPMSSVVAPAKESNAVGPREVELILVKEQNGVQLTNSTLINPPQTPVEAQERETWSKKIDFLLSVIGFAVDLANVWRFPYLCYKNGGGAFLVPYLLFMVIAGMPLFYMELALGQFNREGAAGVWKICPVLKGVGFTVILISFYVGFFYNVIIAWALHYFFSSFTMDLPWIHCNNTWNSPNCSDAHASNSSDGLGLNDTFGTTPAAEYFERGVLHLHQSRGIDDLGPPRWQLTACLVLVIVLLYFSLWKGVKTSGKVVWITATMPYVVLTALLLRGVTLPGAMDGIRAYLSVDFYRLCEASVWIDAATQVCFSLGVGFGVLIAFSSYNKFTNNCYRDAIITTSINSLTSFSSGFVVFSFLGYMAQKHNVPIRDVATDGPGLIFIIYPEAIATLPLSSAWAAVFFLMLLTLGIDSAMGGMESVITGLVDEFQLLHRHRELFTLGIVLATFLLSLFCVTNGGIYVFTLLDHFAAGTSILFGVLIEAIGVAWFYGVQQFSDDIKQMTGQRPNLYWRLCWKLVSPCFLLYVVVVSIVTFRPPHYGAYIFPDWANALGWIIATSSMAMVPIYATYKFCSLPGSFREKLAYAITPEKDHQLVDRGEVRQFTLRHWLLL
Protocol: For dopamine transporter imaging agents, the target area of the brain is the striatum, where dopamine transporters are highly concentrated. The cerebellum region is suitable for use as the background region, because it has no dopamine transporters. The specific uptake is measured by the ratio of % dose/gram of striatum divided by % dose/gram of cerebellum (ST/CB ratio)--the higher the value, the better the specific uptake, and the more promising as a dopamine transporter imaging agent.
(§2) Regional brain distribution in rats was obtained after an injection of 1.19a, 1.19b, 1.20a, 1.20b or 1.21. Samples from different brain regions (cortex, striatum, hippocampus, and cerebellum) were dissected, weighed and counted, and the percentage dose per gram of sample was calculated by comparing the sample counts with the count of the diluted initial dose. The uptake ratio of each region was obtained by dividing the percentage dose per gram of that region by that of the cerebellum. For blocking studies, rats were injected with either β-CIT or haloperidol (iv, 1 mg/Kg) 5 min prior to injection of 1.19a. The rats were dissected and brain tissue samples were counted as described above. The specific uptake of the compound was expressed as ratio of ST/CB (% dose/g of striatum divided by the same of cerebellum).
as §1
as §2, with “3.24 to 3.34.” for “1.19a, 1.19b, 1.20a, 1.20b or 1.21.”, “3.25.” for “1.19a.”, “above.” for “above. The specific uptake of the compound was expressed as ratio of ST/CB (% dose/g of striatum divided by the same of cerebellum).”

SMILES	Brain uptake, 2 min [1]	Brain uptake, 30 min [1]	Blood uptake, 2 min [1]	Heart uptake, 2 min [1]	Kidney uptake, 2 min [1]	Liver uptake, 2 min [1]	Lung uptake, 2 min [1]	Muscle uptake, 2 min [1]	Skin uptake, 2 min [1]	Spleen uptake, 2 min [1]	Blood uptake, 30 min [1]	Heart uptake, 30 min [1]	Kidney uptake, 30 min [1]	Liver uptake, 30 min [1]	Lung uptake, 30 min [1]	Muscle uptake, 30 min [1]	Skin uptake, 30 min [1]	Spleen uptake, 30 min [1]	also measured
COC(=O)C1C(c2ccc(Cl)cc2)CC2CCC1N2CCC[N+]12CC[S][99Tc-]13(=[O])[S]CC[N]3CC2 (mixture of isomers) [Compound 2.6a]	0.27 ± 0.02 % dose/organ	0.11 ± 0.02 % dose/organ																	Brain uptake and specific striatal uptake, in words [2]: displayed a significant brain uptake and specific uptake to the striatum area of the rat brain
CN1[C@H]2CC[C@@H]1[C@@H](C[N+]13CC[S][99Tc-]14(=[O])[S]CC[N]4CC3)[C@@H](c1ccc(Cl)cc1)C2 (single isomer, unassigned; peak a) [Peak A (1.19a)]	0.5 % dose/organ and 0.50 ± 0.06 % dose/organ		1.98 ± 0.19 % dose/organ	1.76 ± 0.09 % dose/organ	5.47 ± 1.04 % dose/organ	9.55 ± 2.19 % dose/organ	9.68 ± 0.51 % dose/organ	33.61 ± 4.31 % dose/organ	2.73 ± 0.39 % dose/organ	0.27 ± 0.04 % dose/organ									Blood uptake, 60 min ([1]; 60 min): 1.00 ± 0.15 % dose/organ; Brain uptake, 60 min ([1]; 60 min): 0.21 ± 0.01 % dose/organ; Heart uptake, 60 min ([1]; 60 min): 0.21 ± 0.00 % dose/organ; Kidney uptake, 60 min ([1]; 60 min): 2.04 ± 0.21 % dose/organ; Liver uptake, 60 min ([1]; 60 min): 17.75 ± 1.81 % dose/organ; Lung uptake, 60 min ([1]; 60 min): 3.06 ± 0.28 % dose/organ; Muscle uptake, 60 min ([1]; 60 min): 14.98 ± 0.49 % dose/organ; Skin uptake, 60 min ([1]; 60 min): 3.56 ± 0.65 % dose/organ; Spleen uptake, 60 min ([1]; 60 min): 0.46 ± 0.18 % dose/organ; ST/CB ratio, 60 min ([2]; 60 min): 2.72
COC(=O)[C@H]1[C@@H](c2ccc(Cl)cc2)C[C@@H]2CC[C@H]1N2CCC[N+]12CC[S][99Tc-]13(=[O])[S]CC[N]3CC2 (single isomer, unassigned; peak a) [peak A of (2.6a)]	0.25 ± 0.04 % dose/organ	0.13 ± 0.02 % dose/organ	2.41 ± 0.33 % dose/organ	0.79 ± 0.03 % dose/organ	2.97 ± 0.09 % dose/organ	14.29 ± 2.56 % dose/organ	15.63 ± 2.31 % dose/organ	7.78 ± 0.32 % dose/organ	1.59 ± 0.68 % dose/organ	0.42 ± 0.10 % dose/organ	1.16 ± 0.06 % dose/organ	0.22 ± 0.02 % dose/organ	1.25 ± 0.11 % dose/organ	20.87 ± 2.23 % dose/organ	9.65 ± 1.37 % dose/organ	10.41 ± 1.26 % dose/organ	5.69 ± 0.73 % dose/organ	0.42 ± 0.05 % dose/organ	
COC(=O)[C@H]1[C@@H](c2ccc(Cl)cc2)C[C@@H]2CC[C@H]1N2CCC[N+]12CC[S][99Tc-]13(=[O])[S]CC[N]3CC2 (single isomer, unassigned; peak b) [peak B of (2.6a)]	0.19 ± 0.041 % dose/organ	0.094 ± 0.026 % dose/organ	3.96 ± 0.70 % dose/organ	0.70 ± 0.21 % dose/organ	2.03 ± 0.45 % dose/organ	19.56 ± 3.21 % dose/organ	19.16 ± 2.06 % dose/organ	9.92 ± 1.04 % dose/organ	1.25 ± 0.17 % dose/organ	0.42 ± 0.10 % dose/organ	1.82 ± 0.43 % dose/organ	0.24 ± 0.08 % dose/organ	1.24 ± 0.18 % dose/organ	28.57 ± 2.94 % dose/organ	12.51 ± 1.46 % dose/organ	8.09 ± 1.686 % dose/organ	3.25 ± 0.76 % dose/organ	0.67 ± 0.17 % dose/organ	
